From ChEMBL document CHEMBL3091353, “Trisubstituted and tetrasubstituted pyrazolines as a novel class of cell-growth inhibitors in tumor cells with wild type p53” (Bioorg Med Chem, 2013)
pIC50: −log10 of the molar value. Calls of active or inactive are those of the source. No cut-off for these calls is given here.

What was measured:
[1] = Cytotoxicity against human H1299 cells after 72 hrs by CellTiterGlo luciferase-based assay; format: functional, cell-based; conditions: NCI-H1299, 72 h
[2] = system: HCT-116; assay: Cytotoxicity against human HCT116 cells after 72 hrs by CellTiterGlo luciferase-based assay; format: functional, cell-based; conditions: HCT-116, 72 h
[3] = target: E3 ubiquitin-protein ligase Mdm2 (Homo sapiens) (UniProt Q00987); assay: Displacement of carboxyfluorescein-labeled LTFEHYWAQLTS-FAM from MDM2 (unknown origin) (2 to 125) at 0.005 to 1 mM by fluorescence anisotropic analysis
[4] = target: E3 ubiquitin-protein ligase Mdm2 (Homo sapiens) (UniProt Q00987); assay: Displacement of carboxyfluorescein-labeled LTFEHYWAQLTS-FAM from human MDM2 (16 to 116) expressed in Escherichia coli C41 at 0.005 to 1 mM by fluorescence anisotropic analysis
[5] = system: HCT-116; assay: Cytotoxicity against human HCT116 cells at 20 uM after 72 hrs by CellTiterGlo luciferase-based assay; format: functional, cell-based
[6] = system: NCI-H1299; assay: Cytotoxicity against human H1299 cells at 20 uM after 72 hrs by CellTiterGlo luciferase-based assay; format: functional, cell-based
[7] = Ratio of IC50 for human H1299 cells to IC50 for human HCT116 cells; conditions: H1299 cells and HCT116 cells
[8] = target: Cellular tumor antigen p53 (Homo sapiens) (UniProt P04637); assay: Induction of p53 translocation in human HCT116 cells assessed as protein nuclear to cytosolic ratio at 30 uM after 20 hrs by immunofluorescence analysis; format: cell-based; conditions: HCT-116
Chain of Cellular tumor antigen p53 (Homo sapiens) (P04637 whole entry, looked up): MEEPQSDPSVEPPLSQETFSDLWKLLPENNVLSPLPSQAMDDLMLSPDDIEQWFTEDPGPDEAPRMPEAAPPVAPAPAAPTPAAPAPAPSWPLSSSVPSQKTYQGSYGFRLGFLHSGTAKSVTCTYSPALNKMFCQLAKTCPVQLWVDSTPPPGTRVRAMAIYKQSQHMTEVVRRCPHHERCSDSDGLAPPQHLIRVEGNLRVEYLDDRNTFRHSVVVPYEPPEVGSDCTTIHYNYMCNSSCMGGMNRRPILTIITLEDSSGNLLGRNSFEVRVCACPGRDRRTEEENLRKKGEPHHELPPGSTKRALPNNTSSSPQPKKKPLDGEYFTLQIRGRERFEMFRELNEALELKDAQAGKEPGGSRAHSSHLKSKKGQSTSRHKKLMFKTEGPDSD

Chain of E3 ubiquitin-protein ligase Mdm2 (Homo sapiens) (Q00987 whole entry, looked up): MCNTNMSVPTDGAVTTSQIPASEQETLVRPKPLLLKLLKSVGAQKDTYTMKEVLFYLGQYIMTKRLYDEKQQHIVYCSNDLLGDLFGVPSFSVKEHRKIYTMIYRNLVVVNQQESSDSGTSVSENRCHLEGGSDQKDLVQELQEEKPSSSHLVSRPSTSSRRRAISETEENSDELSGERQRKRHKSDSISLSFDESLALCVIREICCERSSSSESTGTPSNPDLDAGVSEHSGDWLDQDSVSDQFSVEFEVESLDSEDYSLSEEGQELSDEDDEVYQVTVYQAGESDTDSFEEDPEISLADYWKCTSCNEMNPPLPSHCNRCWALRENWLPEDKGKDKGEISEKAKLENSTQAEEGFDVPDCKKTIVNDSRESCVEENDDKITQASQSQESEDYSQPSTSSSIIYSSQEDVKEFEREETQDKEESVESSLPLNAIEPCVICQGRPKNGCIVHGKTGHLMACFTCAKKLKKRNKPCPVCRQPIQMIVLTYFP

| inhibition [3] | inhibition [4] | Activity [8] | Compound | pIC50 [1] | pIC50 [2] | inhibition [5] | inhibition [6] | selectivity ratio [7] |
| --- | --- | --- | --- | --- | --- | --- | --- | --- |
| Active | Active | – | CC(C)(C)C1=NN(c2ccc(Cl)cc2)C(c2ccc(Cl)c(Cl)c2)C1 (stereo not drawn) | 4.83 | 5.28 | – | – | – |
| – | – | – | COc1ccc(C2=NN(c3cccc(Cl)c3)C(c3ccccc3Cl)C2)cc1 (stereo not drawn) | – | – | Active | Active | – |
| Active | Active | – | CC(C)(C)C1=NN(c2ccc(Cl)cc2)C(c2ccc(Cl)cc2)C1C(=O)N1CCOCC1 (stereo not drawn) | 4.85 | 5.46 | – | – | – |
| inactive | inactive | – | COc1ccccc1C1=NN(c2ccccc2Cl)C(c2cccc(Cl)c2)C1 (stereo not drawn) | 4.87 | 5.72 | – | – | – |
| inactive | inactive | – | COc1ccc(C2=NN(c3ccccc3Cl)C(c3cccc(Cl)c3)C2)cc1 (stereo not drawn) | 5.14 | 5.82 | – | – | – |
| – | – | – | COc1ccc(C2=N[C@@H](c3ccc(Cl)cc3)[C@@H](c3ccc(Cl)cc3)N2C(=O)N2CCNC(=O)C2)c(OC(C)C)c1 [NUTLIN-3] | 4.83 | 5.80 | – | – | 9 |
| Active | Active | – | CC(C)(C)C1=NN(c2ccc(Cl)cc2)C(c2ccc(Cl)cc2)C1 (stereo not drawn) | 4.71 | 4.76 | – | – | – |
| inactive | inactive | – | COc1cccc(C2=NN(c3ccc(Cl)cc3)C(c3cccc(Cl)c3)C2)c1 (stereo not drawn) | – | 4.73 | – | – | – |
| Active | Active | – | CC(C)(C)C1=NN(c2ccc(Cl)cc2)C(c2ccc3ccccc3c2)C1 (stereo not drawn) | – | 4.90 | – | – | – |
| inactive | inactive | – | CCOc1ccccc1C1=NN(c2ccc(Cl)cc2)C(c2ccc(Cl)cc2)C1C(=O)N1CCOCC1 (stereo not drawn) | 5.08 | 5.10 | – | – | – |
| Active | Active | – | CC(C)(C)C1=NN(c2ccc(Br)cc2)C(c2ccc(Cl)cc2)C1 (stereo not drawn) | 4.71 | 5.37 | – | – | – |
| inactive | inactive | inactive | COc1cccc(C2=NN(c3ccccc3Cl)C(c3ccccc3Cl)C2)c1 (stereo not drawn) | 4.87 | 5.60 | – | – | – |
| inactive | inactive | – | COc1ccccc1C1=NN(c2cccc(Cl)c2)C(c2cccc(Cl)c2)C1 (stereo not drawn) | 4.93 | 5.80 | – | – | – |
